Experimental findings from ChEMBL document CHEMBL5465560, “Selectivity Literature for EUbOPEN Chemogenomic Library” (2024) are described below.

In assay [1] the target is T1, MAP/microtubule affinity-regulating kinase 4 (Homo sapiens) (UniProt Q96L34).
T1 sequence (whole entry): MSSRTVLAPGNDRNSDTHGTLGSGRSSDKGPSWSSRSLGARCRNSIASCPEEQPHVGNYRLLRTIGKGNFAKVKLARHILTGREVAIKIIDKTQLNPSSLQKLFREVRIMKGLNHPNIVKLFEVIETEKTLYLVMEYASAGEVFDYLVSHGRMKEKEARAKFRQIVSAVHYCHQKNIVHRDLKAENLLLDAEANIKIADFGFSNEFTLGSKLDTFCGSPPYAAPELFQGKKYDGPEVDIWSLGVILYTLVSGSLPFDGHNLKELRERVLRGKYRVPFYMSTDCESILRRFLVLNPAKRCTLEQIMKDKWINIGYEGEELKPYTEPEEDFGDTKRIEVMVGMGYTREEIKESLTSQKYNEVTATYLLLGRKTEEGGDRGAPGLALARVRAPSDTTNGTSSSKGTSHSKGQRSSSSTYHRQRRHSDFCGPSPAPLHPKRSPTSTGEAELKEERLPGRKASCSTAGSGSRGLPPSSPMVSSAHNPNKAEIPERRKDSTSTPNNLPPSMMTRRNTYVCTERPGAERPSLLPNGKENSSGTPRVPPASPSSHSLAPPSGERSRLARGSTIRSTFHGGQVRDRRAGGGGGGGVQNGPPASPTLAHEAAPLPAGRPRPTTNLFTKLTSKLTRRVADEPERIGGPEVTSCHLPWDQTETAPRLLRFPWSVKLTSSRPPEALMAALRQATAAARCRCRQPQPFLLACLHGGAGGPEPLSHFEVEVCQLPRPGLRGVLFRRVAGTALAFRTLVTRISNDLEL
As to the kind of experiment: Selectivity interaction (Kinase panel (DSF assay)) EUB0001558a MARK4.

For assay [2], the target named is MAP kinase-interacting serine/threonine-protein kinase 1 (Homo sapiens) (UniProt Q9BUB5). The experiment in a line: Selectivity interaction (KinomeScan (DiscoverX)) EUB0000229b MKNK1. The note with it: at 10 µM.
Assay [3] has as its target T2, Serine/threonine-protein kinase Nek9 (Homo sapiens) (UniProt Q8TD19).
T2 sequence (whole entry): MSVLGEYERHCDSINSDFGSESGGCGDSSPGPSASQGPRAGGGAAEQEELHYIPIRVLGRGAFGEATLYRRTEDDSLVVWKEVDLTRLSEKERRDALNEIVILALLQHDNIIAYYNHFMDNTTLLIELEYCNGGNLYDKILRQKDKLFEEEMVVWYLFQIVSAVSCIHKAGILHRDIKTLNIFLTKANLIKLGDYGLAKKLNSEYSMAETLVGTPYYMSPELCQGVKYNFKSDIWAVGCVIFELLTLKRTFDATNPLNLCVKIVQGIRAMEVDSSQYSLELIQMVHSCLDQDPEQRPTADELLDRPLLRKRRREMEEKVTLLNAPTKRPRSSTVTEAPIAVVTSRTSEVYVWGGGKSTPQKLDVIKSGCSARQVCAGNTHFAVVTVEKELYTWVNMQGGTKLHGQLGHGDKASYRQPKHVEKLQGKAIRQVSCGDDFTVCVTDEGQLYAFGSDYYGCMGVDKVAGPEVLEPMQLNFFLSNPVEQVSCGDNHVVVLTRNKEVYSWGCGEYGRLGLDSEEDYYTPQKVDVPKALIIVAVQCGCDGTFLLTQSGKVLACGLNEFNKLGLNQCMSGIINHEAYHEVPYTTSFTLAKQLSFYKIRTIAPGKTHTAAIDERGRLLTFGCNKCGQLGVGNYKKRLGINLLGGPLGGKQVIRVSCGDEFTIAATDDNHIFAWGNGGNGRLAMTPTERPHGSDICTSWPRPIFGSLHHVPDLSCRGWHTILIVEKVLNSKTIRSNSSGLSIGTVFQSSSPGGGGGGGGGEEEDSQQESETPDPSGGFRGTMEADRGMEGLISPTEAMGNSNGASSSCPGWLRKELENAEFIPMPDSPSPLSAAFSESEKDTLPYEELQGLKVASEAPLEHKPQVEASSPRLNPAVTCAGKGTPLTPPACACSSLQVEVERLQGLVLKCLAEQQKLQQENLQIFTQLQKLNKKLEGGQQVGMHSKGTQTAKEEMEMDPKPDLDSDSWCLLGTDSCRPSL
The experiment in a line: Selectivity interaction (ActivX KiNativ screen (kinase selectivity in THP-1 cell lysates)) EUB0000639a NEK9. The format is subcellular. The note with it: lysate, at 1 µM.

The target of assay [4] is Mitogen-activated protein kinase 10 (Homo sapiens, UniProt P53779). As to the kind of experiment: Selectivity interaction (ActivX KiNativ screen (kinase selectivity in THP-1 cell lysates)) EUB0000639a MAPK10. The format is subcellular. The note with it: lysate.
For assay [5], the target named is T3, Mitogen-activated protein kinase 15 (Homo sapiens) (UniProt Q8TD08).
T3 sequence (whole entry): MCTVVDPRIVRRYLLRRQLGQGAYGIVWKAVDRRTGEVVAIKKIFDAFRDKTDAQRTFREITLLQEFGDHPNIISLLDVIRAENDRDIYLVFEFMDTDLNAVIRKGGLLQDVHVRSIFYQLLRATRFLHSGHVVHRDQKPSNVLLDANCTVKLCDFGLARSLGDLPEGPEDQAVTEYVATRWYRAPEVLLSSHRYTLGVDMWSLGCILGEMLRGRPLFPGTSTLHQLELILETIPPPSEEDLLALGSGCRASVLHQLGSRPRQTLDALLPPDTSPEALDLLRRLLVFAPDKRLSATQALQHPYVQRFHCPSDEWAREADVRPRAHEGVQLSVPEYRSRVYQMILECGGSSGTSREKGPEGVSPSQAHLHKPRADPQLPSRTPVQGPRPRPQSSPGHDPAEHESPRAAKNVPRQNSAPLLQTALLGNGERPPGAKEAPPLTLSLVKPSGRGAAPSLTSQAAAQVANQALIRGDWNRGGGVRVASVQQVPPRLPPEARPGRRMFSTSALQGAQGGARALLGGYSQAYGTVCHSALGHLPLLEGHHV
The experiment in a line: Selectivity interaction (KinomeScan (DiscoverX)) EUB0000092b MAPK15. The note with it: at 10 µM.

Assay [6] deals with Protein kinase C delta type (Homo sapiens) (UniProt Q05655). The experiment in a line: Selectivity interaction (KinomeScan (DiscoverX)) EUB0000618a PRKCD. The note with it: at 10 µM.
Sequence of Protein kinase C delta type (Homo sapiens) (Q05655 whole entry, looked up): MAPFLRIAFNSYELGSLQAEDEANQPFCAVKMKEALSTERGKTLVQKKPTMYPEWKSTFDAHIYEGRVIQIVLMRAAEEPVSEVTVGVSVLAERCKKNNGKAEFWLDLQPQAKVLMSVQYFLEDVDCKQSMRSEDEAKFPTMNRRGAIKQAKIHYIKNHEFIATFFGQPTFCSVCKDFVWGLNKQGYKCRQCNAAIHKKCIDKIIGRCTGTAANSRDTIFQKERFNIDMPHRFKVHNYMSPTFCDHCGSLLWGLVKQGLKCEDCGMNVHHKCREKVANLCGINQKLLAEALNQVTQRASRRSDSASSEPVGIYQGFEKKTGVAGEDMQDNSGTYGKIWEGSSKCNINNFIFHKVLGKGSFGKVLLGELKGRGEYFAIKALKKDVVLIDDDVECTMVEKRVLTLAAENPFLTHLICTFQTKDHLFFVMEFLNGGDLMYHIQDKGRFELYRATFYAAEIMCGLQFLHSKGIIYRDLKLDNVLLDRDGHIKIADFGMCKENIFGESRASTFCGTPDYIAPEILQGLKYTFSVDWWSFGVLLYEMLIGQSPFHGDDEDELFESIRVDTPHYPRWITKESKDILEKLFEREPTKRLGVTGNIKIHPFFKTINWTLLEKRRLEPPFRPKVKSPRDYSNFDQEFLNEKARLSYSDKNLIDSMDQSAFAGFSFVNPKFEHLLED

Sequence of Mitogen-activated protein kinase 10 (P53779 whole entry): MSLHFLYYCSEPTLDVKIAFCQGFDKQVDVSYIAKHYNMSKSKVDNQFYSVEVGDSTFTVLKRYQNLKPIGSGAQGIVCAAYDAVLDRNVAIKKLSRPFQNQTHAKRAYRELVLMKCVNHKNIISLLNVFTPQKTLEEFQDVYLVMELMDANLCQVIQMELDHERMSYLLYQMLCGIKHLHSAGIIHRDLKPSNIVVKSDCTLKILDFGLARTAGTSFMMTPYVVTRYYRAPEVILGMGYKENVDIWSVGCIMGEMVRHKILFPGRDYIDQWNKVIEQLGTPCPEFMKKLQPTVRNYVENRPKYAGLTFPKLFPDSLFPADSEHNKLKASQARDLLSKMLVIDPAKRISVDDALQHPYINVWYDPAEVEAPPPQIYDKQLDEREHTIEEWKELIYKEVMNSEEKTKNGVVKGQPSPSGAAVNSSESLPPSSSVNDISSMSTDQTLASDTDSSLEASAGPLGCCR
Sequence of MAP kinase-interacting serine/threonine-protein kinase 1 (Homo sapiens) (Q9BUB5 whole entry, looked up): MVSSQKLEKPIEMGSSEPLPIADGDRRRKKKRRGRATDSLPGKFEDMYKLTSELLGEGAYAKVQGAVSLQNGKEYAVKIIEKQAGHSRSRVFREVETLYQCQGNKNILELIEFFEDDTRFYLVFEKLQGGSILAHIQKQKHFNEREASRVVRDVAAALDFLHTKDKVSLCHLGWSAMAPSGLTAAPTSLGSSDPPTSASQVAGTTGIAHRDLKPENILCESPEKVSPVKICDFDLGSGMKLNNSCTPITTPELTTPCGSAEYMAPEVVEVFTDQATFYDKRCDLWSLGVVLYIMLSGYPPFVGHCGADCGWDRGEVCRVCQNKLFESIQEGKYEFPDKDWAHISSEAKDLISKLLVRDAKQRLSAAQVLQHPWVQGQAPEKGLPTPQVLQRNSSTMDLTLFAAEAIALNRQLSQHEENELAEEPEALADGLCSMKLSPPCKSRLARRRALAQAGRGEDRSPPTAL

`CC(C)(O)[C@H](F)CN1Cc2cc(NC(=O)c3cnn4cccnc34)c(N3CCOCC3)cc2C1=O`: the dTM in assay [1] amounted to 1.6 K.
As to `COc1cc(N(C)c2ccnc3ccc(C(F)(F)F)cc23)cc(OC)c1OC`, in assay [2], the % binding is 89%.
As for `CC[C@@H]1[C@H](F)C(=O)N[C@@H]1COc1nccc2cc(C(N)=O)c(OC)cc12` [ZIMLOVISERTIB], the % of inhibition is -1.1% in assay [3]; 13.3% in assay [4] (at 0.01 µM); -1.4% in assay [4] (at 0.04 µM); 1.6% in assay [4] (at 0.2 µM); 27.7% in assay [4] (at 1 µM); 57.5% in assay [4] (at 5 µM).
In the case of `CCC(=O)N1CCN(c2ccc(-n3c(=O)ccc4cnc5ccc(-c6cnc7ccccc7c6)cc5c43)cc2C(F)(F)F)CC1`, the % of control in assay [5] is 79%.
In the case of `O[C@H]1CC[C@H](Nc2ncc3nc(Nc4c(F)cc(F)cc4F)n([C@H]4CCOC4)c3n2)CC1`, the % of control in assay [6] is 93%.
